Biological target: T1, Endogenous BCL6 (Homo sapiens, UniProt P41182)
T1 construct: Endogenous BCL6 was tagged with the 11-amino acid SmBiT through CRISPR/Cas9 gene editing; endogenous in cells; host or cells: SU-DHL-4 (CRISPR/Cas9 knock-in single cell clone)
Assay: HiBiT cellular degradation assay in SU-DHL-4 cells
Assay type: cell-based
Conditions: 24 hours of compound treatment, concentration to reach 50% degradation
Procedure: DC50 (concentration to reach 50% degradation) values were determined from a cellular degradation assay (HiBiT, Promega™) in Su-DHL-4 cells (Table 1). Endogenous BCL6 was tagged with the 11-amino acid SmBiT through CRISPR/Cas9 gene editing and single cell clone selection. After 24 hours of compound treatment, cells were lysed and incubated with LgBiT protein to reconstitute intact nanoluciferase. Substrate was then added and relative luciferase units were measured. Degradation levels for each treatment were taken as a percentage compared to the control, 100% DMSO (Prism).

SMILES | DC50 [nM]
CNC(=O)CCn1c(=O)c(=O)n(C)c2ccc(Nc3nc(N4C[C@H](C)C[C@H](C)C4)ncc3Cl)cc21 [Compound 1, 3-(7-((5-chloro-2-((3S,5R)-3,5-dimethylpiperidin-1-yl)pyrimidin-4-yl)amino)-4-methyl-2,3-dioxo-3,4-dihydroquinoxalin-1(2H)-yl)-N-methylpropanamide] | 25
C[C@@H]1CN(c2ncc(Cl)c(Nc3ccc4c(c3)n(CCC(=O)NCCCN(C)C)c(=O)c(=O)n4C)n2)C[C@H](C)C1(F)F [Compound 19] | 500
CNC(=O)CCn1c(=O)c(=O)n(C)c2ccc(Nc3nc(N4C[C@H](CCN)C(F)(F)[C@H](C)C4)ncc3Cl)cc21 [Compound 80] | > 10000
CNC(=O)CCn1c(=O)c(=O)n(C)c2ccc(Nc3nc(N4C[C@@H](CCN)C(F)(F)[C@@H](C)C4)ncc3Cl)cc21 [Compound 81] | 250
CNC(=O)CCn1c(=O)c(=O)n(C)c2ccc(Nc3nc(N4C[C@@H](C)C(F)(F)[C@@H](N)C4)ncc3Cl)cc21 [Compound 82] | 84
CNC(=O)CCn1c(=O)c(=O)n(C)c2ccc(Nc3nc(N4C[C@@H](N)C(F)(F)[C@@H](C)C4)ncc3Cl)cc21 [Compound 83] | 920
CNC(=O)CCn1c(=O)c(=O)n(C)c2ccc(Nc3nc(N4C[C@@H](O)C(F)(F)[C@@H](C)C4)ncc3Cl)cc21 [Compound 85] | 94
C[C@@H]1C[C@H](C)CN(c2ncc(Cl)c(Nc3ccc4c(c3)n(CC[C@@H](C)O)c(=O)c(=O)n4C)n2)C1 [Compound 107] | 47
C[C@@H]1CN(c2ncc(Cl)c(Nc3ccc4c(c3)n(C[C@H]3C[C@H](O)C3)c(=O)c(=O)n4C)n2)C[C@H](C)C1F (stereo partly shown) [Compound 108] | 43
C[C@@H]1CN(c2ncc(Cl)c(Nc3ccc4c(c3)n(C[C@H]3C[C@@H](O)C3)c(=O)c(=O)n4C)n2)C[C@H](C)C1F (stereo partly shown) [Compound 109] | 4
C[C@@H]1CN(c2ncc(Cl)c(Nc3ccc4c(c3)n(CCC3(O)CC3)c(=O)c(=O)n4C)n2)C[C@H](C)C1F (stereo partly shown) [Compound 110] | 18
C[C@@H]1CN(c2ncc(Cl)c(Nc3ccc4c(c3)n(CCC3(O)CCC3)c(=O)c(=O)n4C)n2)C[C@H](C)C1F (stereo partly shown) [Compound 111] | 34
C[C@@H]1CN(c2ncc(Cl)c(Nc3ccc4c(c3)n(CCC3(O)COC3)c(=O)c(=O)n4C)n2)C[C@H](C)C1F (stereo partly shown) [Compound 112] | 25
C[C@@H]1CN(c2ncc(Cl)c(Nc3ccc4c(c3)n(C[C@@H]3CNC(=O)O3)c(=O)c(=O)n4C)n2)C[C@H](C)[C@@H]1F [Compound 117] | 130
C[C@@H]1CN(c2ncc(Cl)c(Nc3ccc4c(c3)n(C[C@@H]3COC(=O)N3)c(=O)c(=O)n4C)n2)C[C@H](C)[C@@H]1F [Compound 118] | 120
C[C@@H]1CN(c2nc(Nc3ccc4c(c3)n(CCC3(O)CC3)c(=O)c(=O)n4C)c(Cl)cc2C#N)C[C@H](C)[C@@H]1F [Compound 119] | 13
CNC(=O)CCn1c(=O)c(=O)n(C)c2ccc(Nc3nc(N4C[C@H](CCO)C(F)(F)[C@H](C)C4)c(C#N)cc3Cl)cc21 [Compound 120] | 1900
CNC(=O)CCn1c(=O)c(=O)n(C)c2ccc(Nc3nc(N4C[C@@H](CCO)C(F)(F)[C@@H](C)C4)c(C#N)cc3Cl)cc21 [Compound 121] | 71
C[C@@H]1CN(c2ncc(Cl)c(Nc3ccc4c(c3)n(CC[C@@H](C)O)c(=O)c(=O)n4C)n2)C[C@H](C)[C@@H]1F [Compound 122] | 19
C[C@H](O)CCn1c(=O)c(=O)n(C)c2ccc(Nc3nc(N4C[C@@H](C)[C@@H](F)[C@@H](C)C4)ncc3Cl)cc21 [Compound 123] | 23

Other lines, results leading:

DC50 [nM] | SMILES
> 10000 | C[C@@H]1CN(c2ncc(Cl)c(Nc3ccc4c(c3)n(CCC(=O)NC3CN(C)C3)c(=O)c(=O)n4C)n2)C[C@H](C)C1(F)F [Compound 8]
220 | C[C@@H]1CN(c2ncc(Cl)c(Nc3ccc4c(c3)n(CCC(=O)NC3CCN(C)C3)c(=O)c(=O)n4C)n2)C[C@H](C)C1(F)F (stereo partly shown) [Compound 9]
3100 | C[C@@H]1CN(c2ncc(Cl)c(Nc3ccc4c(c3)n(CCC(=O)NCC3CN(C)C3)c(=O)c(=O)n4C)n2)C[C@H](C)C1(F)F [Compound 11]
1800 | C[C@@H]1CN(c2ncc(Cl)c(Nc3ccc4c(c3)n(CCC(=O)NCC3CCN(C)C3)c(=O)c(=O)n4C)n2)C[C@H](C)C1(F)F (stereo partly shown) [Compound 12]
450 | C[C@@H]1CN(c2ncc(Cl)c(Nc3ccc4c(c3)n(CCC(=O)NCCN(C)C)c(=O)c(=O)n4C)n2)C[C@H](C)C1(F)F [Compound 18]
32 | C[C@@H]1CN(c2ncc(Cl)c(Nc3ccc4c(c3)n(CCC(=O)NC3COC3)c(=O)c(=O)n4C)n2)C[C@H](C)C1(F)F [Compound 28]
71 | C[C@@H]1CN(c2ncc(Cl)c(Nc3ccc4c(c3)n(CCC(=O)NC3CCOC3)c(=O)c(=O)n4C)n2)C[C@H](C)C1(F)F (stereo partly shown) [Compound 29]
160 | C[C@@H]1CN(c2ncc(Cl)c(Nc3ccc4c(c3)n(CCC(=O)NCC3COC3)c(=O)c(=O)n4C)n2)C[C@H](C)C1(F)F [Compound 31]
150 | C[C@@H]1CN(c2ncc(Cl)c(Nc3ccc4c(c3)n(CCC(=O)NCC3CCOC3)c(=O)c(=O)n4C)n2)C[C@H](C)C1(F)F (stereo partly shown) [Compound 32]
14 | CNC(=O)Cn1c(=O)c(=O)n(C)c2ccc(Nc3nc(N4C[C@@H](C)C(F)(F)[C@@H](C)C4)ncc3Cl)cc21 [Compound 56, 2-(7-((5-chloro-2-((3R,5S)-4,4-difluoro-3,5-dimethylpiperidin-1-yl)pyrimidin-4-yl)amino)-4-methyl-2,3-dioxo-3,4-dihydroquinoxalin-1(2H)-yl)-N-methylacetamide]
340 | C[C@@H]1CN(c2ncc(Cl)c(Nc3ccc4c(c3)n(CC(=O)NCCN(C)C)c(=O)c(=O)n4C)n2)C[C@H](C)C1(F)F [Compound 57]
870 | C[C@@H]1CN(c2ncc(Cl)c(Nc3ccc4c(c3)n(CC(=O)NC3CN(C)C3)c(=O)c(=O)n4C)n2)C[C@H](C)C1(F)F [Compound 58]
970 | C[C@@H]1CN(c2ncc(Cl)c(Nc3ccc4c(c3)n(CC(=O)NC3CCN(C)C3)c(=O)c(=O)n4C)n2)C[C@H](C)C1(F)F (stereo partly shown) [Compound 59]
1120 | C[C@@H]1CN(c2ncc(Cl)c(Nc3ccc4c(c3)n(CC(=O)NC3CCN(C)CC3)c(=O)c(=O)n4C)n2)C[C@H](C)C1(F)F [Compound 60]
100 | CNC(=O)C(C)(C)Cn1c(=O)c(=O)n(C)c2ccc(Nc3nc(N4C[C@@H](C)C(F)(F)[C@@H](C)C4)ncc3Cl)cc21 [Compound 68]
130 | C[C@@H]1CN(c2ncc(Cl)c(Nc3ccc4c(c3)n(CCC(=O)NCC(C)(C)O)c(=O)c(=O)n4C)n2)C[C@H](C)C1(F)F [Compound 73]
290 | CNC(=O)[C@H]1C[C@@H](n2c(=O)c(=O)n(C)c3ccc(Nc4nc(N5C[C@@H](C)C(F)(F)[C@@H](C)C5)ncc4Cl)cc32)C1 [Compound 75-1]
100 | CNC(=O)[C@H]1C[C@H](n2c(=O)c(=O)n(C)c3ccc(Nc4nc(N5C[C@@H](C)C(F)(F)[C@@H](C)C5)ncc4Cl)cc32)C1 [Compound 75-2]
120 | CNC(=O)Cn1c(=O)c(=O)n(C)c2ccc(Nc3nc(N4C[C@@H](C)C(F)(F)[C@@H](N)C4)ncc3Cl)cc21 [Compound 86]
230 | CNC(=O)Cn1c(=O)c(=O)n(C)c2ccc(Nc3nc(N4C[C@@H](N)C(F)(F)[C@@H](C)C4)ncc3Cl)cc21 [Compound 87]
